PubChem BioAssay AID1199 (EPA DSSTox, 2008)
Active and inactive are the calls of the source.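 Rule for the calls: active = a tumour-causing dose and a tumour site recorded for mice in at least one sex group; inconclusive = only government mouse studies exist and were judged inadequate; inactive = mouse studies exist but none gave tumours.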

These compounds were tested on mouse carcinogenicity bioassay, TD50 from CPDB (assay: DSSTox (CPDBAS) Carcinogenic Potency Database Summary Mouse Bioassay Results). Details: not given.
Summary of the method: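 Values are TD50 carcinogenic potencies from mouse chronic bioassays, taking the most positive result for each sex-species. Sources are published literature and NCI/NTP studies; target sites reflect author-reported positive findings.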
Work on `Nc1ccc(Oc2ccc(N)c(N)c2)cc1` yielded a Potency of 0.0618 mmol/kg/day. For `CCCCN(CCCC)N=O`, the Potency was 0.00689 mmol/kg/day. Compound `C#CC(C)(C)NC(=O)c1cc(Cl)cc(Cl)c1` has a Potency of 0.547 mmol/kg/day.

Same assay, conditions: TD50_Mouse_Note: TD50 is harmonic mean of more than one positive test; TD50_Mouse_mmol was not calculated for this mixture, but Activiity; TargetSites_Mouse_Female: liver
With `CC(C)CCCCCCOC(=O)c1ccccc1C(=O)OCCCCCCC(C)C` the outcome was “active; liver”.

Same assay, conditions: TD50_Mouse_Note: TD50 is harmonic mean of more than one positive test; TargetSites_Mouse_Female: ear Zymbals gland; harderian gland; liver; vascular system
For `[O-]/[N+](=N\O)c1ccccc1`, the Potency was 3.77 mmol/kg/day.

Same assay, conditions: TD50_Mouse_Note: TD50 is harmonic mean of more than one positive test; TargetSites_Mouse_Female: harderian gland; stomach
`C=CC#N` gave a Potency of 0.119 mmol/kg/day.

Same assay, conditions: TD50_Mouse_Note: TD50 is harmonic mean of more than one positive test; TargetSites_Mouse_Female: hematopoietic system
`O=C1C=CC(=O)C=C1` gave a Potency of 0.0469 mmol/kg/day.

Same assay, conditions: TD50_Mouse_Note: TD50 is harmonic mean of more than one positive test; TargetSites_Mouse_Female: hematopoietic system; lung; myocardium; stomach
`C[C@]12CC[C@@H]3c4ccc(OC(=O)Cc5ccc(N(CCCl)CCCl)cc5)cc4CC[C@H]3[C@@H]1CC[C@@H]2OC(=O)Cc1ccc(N(CCCl)CCCl)cc1` was tested, and the Potency was 0.00184 mmol/kg/day.

Same assay, conditions: TD50_Mouse_Note: TD50 is harmonic mean of more than one positive test; TargetSites_Mouse_Female: liver
Compound `Nc1nc(N)c2nc(-c3ccccc3)c(N)nc2n1` has a Potency of 0.238 mmol/kg/day. `Nc1ncn[nH]1` showed a Potency of 0.301 mmol/kg/day. `CC(O)COC(C)(C)C` (stereo not drawn) gave a Potency of 14.1 mmol/kg/day. In the case of `CN(C)c1ccc(C(=N)c2ccc(N(C)C)cc2)cc1`, the Potency is reported as 0.206 mmol/kg/day.

Same assay, conditions: TD50_Mouse_Note: TD50 is harmonic mean of more than one positive test; TargetSites_Mouse_Female: liver; thyroid gland
`Clc1cc2c(cc1Cl)Oc1cc(Cl)c(Cl)cc1O2` gave a Potency of 4.85e-07 mmol/kg/day.

Same assay, conditions: TD50_Mouse_Note: TD50 is harmonic mean of more than one positive test; TargetSites_Mouse_Female: liver; vascular system
For `Cc1ccc(Cl)cc1N`, the Potency was 1.38 mmol/kg/day.

Same assay, conditions: TD50_Mouse_Note: TD50 is harmonic mean of more than one positive test; TargetSites_Mouse_Female: lung
In the case of `N#[N+]c1ccccc1`, the Potency is reported as 0.0712 mmol/kg/day. In the case of `CCCCNN`, the Potency is reported as 0.0971 mmol/kg/day. `CC(=O)NN` was tested, and the Potency was 0.133 mmol/kg/day. `O=[O+][O-]` gave a Potency of 0.0392 mmol/kg/day. `NNC(=O)c1cccnc1` was tested, and the Potency was 1.66 mmol/kg/day.

Same assay, conditions: TD50_Mouse_Note: TD50 is harmonic mean of more than one positive test; TargetSites_Mouse_Female: mammary gland
With `COC(=O)[C@H]1[C@H]2C[C@@H]3c4[nH]c5cc(OC)ccc5c4CCN3C[C@H]2C[C@@H](OC(=O)c2cc(OC)c(OC)c(OC)c2)[C@@H]1OC` the Potency was 0.00825 mmol/kg/day.

Same assay, conditions: TD50_Mouse_Note: TD50 is harmonic mean of more than one positive test; TargetSites_Mouse_Female: stomach
For `Oc1ccc2c(c1)OCO2`, the Potency was 32.5 mmol/kg/day. `COP(=O)(OC)OC=C(Cl)Cl` gave a Potency of 0.319 mmol/kg/day.

Same assay, conditions: TD50_Mouse_Note: TD50 is harmonic mean of more than one positive test; TargetSites_Mouse_Female: vascular system
In the case of `COc1cc2c(c3oc4cccc(O)c4c(=O)c13)C1C=COC1O2` (stereo not drawn), the Potency is reported as 0.0028 mmol/kg/day.

Same assay, conditions: TD50_Mouse_Note: TD50 is harmonic mean of more than one positive test; greater than ten-fold variation among TD50 values for positive res; TargetSites_Mouse_Female: gall bladder; liver; lung; vascular system
For `CN(N)C=O`, the Potency was 0.0185 mmol/kg/day.

Same assay, conditions: TD50_Mouse_Note: TD50 is harmonic mean of more than one positive test; greater than ten-fold variation among TD50 values for positive res; TargetSites_Mouse_Female: lung
Work on `[O]=[Mo](=[O])=[O]` yielded a Potency of 0.0426 mmol/kg/day.

Same assay, conditions: TD50_Mouse_Note: TD50 is harmonic mean of more than one positive test; harmonic mean of TD50 includes a value for upper 99% confidence li; TargetSites_Mouse_Female: liver
Work on `CC(N)=S` yielded a Potency of 0.117 mmol/kg/day.

Same assay, conditions: TD50_Mouse_Note: TD50 value is overestimated as upper 99% confidence limit from study with 100% tumor incidence but no lifetable; harmoni
`Nc1ccc(-c2ccc(N)c(Cl)c2)cc1Cl` gave a Potency of 0.0377 mmol/kg/day.

Same assay, conditions: TD50_Mouse_Note: no positive results
In the case of `CC1=C[C@H]2O[C@@H]3[C@H](O)C[C@@](C)(C34CO4)[C@@]2(CO)[C@H](O)C1=O` (stereo partly drawn), the outcome is reported as “inactive; no positive results”. With `CCCCCCCCCCCCCCCC(=O)OC/C=C(C)/C=C/C=C(C)/C=C/C1=C(C)CCCC1(C)C` the outcome was “inactive; no positive results”. For `N[C@@H](CCC(=O)O)C(=O)O`, the outcome was “inactive; no positive results”. `ClC(Cl)=C(Cl)c1c(Cl)c(Cl)c(Cl)c(Cl)c1Cl` was tested, and the outcome was “inactive; no positive results”. For `NC(CCC(=O)O)C(=O)O` (stereo not drawn), the outcome was “inactive; no positive results”. For `O=C(O[C@@H]1Cc2c(O)cc(O)cc2O[C@@H]1c1cc(O)c(O)c(O)c1)c1cc(O)c(O)c(O)c1`, the outcome was “inactive; no positive results”.

Same assay, conditions: TD50_Mouse_Note: no positive results are statistically significant; TD50_Mouse_mmol was not calculated for this mixture, but Activiity Sc; TargetSites_Mouse_Female: pituitary gland
`C#C[C@]1(OC(C)=O)CC[C@H]2[C@@H]3CCC4=CC(=O)CC[C@@H]4[C@H]3CC[C@@]21C` was tested, and the outcome was “active”.

Same assay, conditions: TD50_Mouse_Note: no positive results are statistically significant; TargetSites_Mouse_Female: no positive results
Compound `COc1cc(-c2ccc(N)c(OC)c2)ccc1N` has a Potency of 0.233 mmol/kg/day.

Same assay, conditions: TD50_Mouse_Note: no positive results; TargetSites_Mouse_Female: no positive results
With `Nc1ccc(Nc2ccccc2)cc1` the outcome was “inactive; no positive results”. For `O=C1OC(=O)c2ccccc21`, the outcome was “inactive; no positive results”. `CCCCN(CCCC)C(=S)[S-].CCCCN(CCCC)C(=S)[S-].[Zn+2]` was tested, and the outcome was “inactive; no positive results”. In the case of `CCN(CC)C(=S)[S-].CCN(CC)C(=S)[S-].[Cd+2]`, the outcome is reported as “inactive; no positive results”. `CCn1cc(C(=O)O)c(=O)c2ccc(C)nc21` was tested, and the outcome was “inactive; no positive results”. With `C=C(C)[C@H]1CC=C(C)C(=O)C1` the outcome was “inactive; no positive results”. For `C=C(C)C(=O)Nc1ccc(Cl)c(Cl)c1`, the outcome was “inactive; no positive results”. For `CCc1nc(N)nc(N)c1-c1ccc(Cl)cc1`, the outcome was “inactive; ntp bioassay inadequate”. In the case of `CCCCN(CC)C(=O)SCCC`, the outcome is reported as “inactive; no positive results”. `CC[C@H](OC(C)=O)C(C[C@H](C)N(C)C)(c1ccccc1)c1ccccc1` was tested, and the outcome was “inactive; no positive results”. For `ClCOCCCCOCCl`, the outcome was “inactive”. In the case of `CC1=C(C(=O)OC(C)C)C(c2cccc([N+](=O)[O-])c2)C(C(=O)OC2CN(C(c3ccccc3)c3ccccc3)C2)=C(N)N1` (stereo not drawn), the outcome is reported as “inactive; no positive results”. With `O=C1NS(=O)(=O)c2ccccc21` the outcome was “inactive; no positive results”. With `CCN(CC)C(=S)S[Te](SC(=S)N(CC)CC)(SC(=S)N(CC)CC)SC(=S)N(CC)CC` the outcome was “inactive; no positive results”. With `O=C1c2ccccc2C(=O)c2ccccc21` the outcome was “inactive; no positive results”. `Cn1cc(C(=O)[C@@H]2CCc3nc[nH]c3C2)c2ccccc21` was tested, and the outcome was “inactive; no positive results”. For `Cc1cccc2ccccc12`, the outcome was “inactive; no positive results”. In the case of `Cc1c(N)cccc1N`, the outcome is reported as “inactive; no positive results”. `ClCOCCCCCCOCCl` was tested, and the outcome was “inactive”. With `Cc1c(COC(=O)C2C(/C=C(\Cl)C(F)(F)F)C2(C)C)cccc1-c1ccccc1` (stereo not drawn) the outcome was “inactive; no positive results”. With `CCC[CH2][Sn]([CH2]CCC)([O]C(C)=O)[O]C(C)=O` the outcome was “inactive; no positive results”. In the case of `[Cl-].[Cl-].[Sn+2]`, the outcome is reported as “inactive; no positive results”. With `CC(=O)OC/C=C(\C)CCC=C(C)C` the outcome was “inactive; no positive results”. `O=C/C(Cl)=C(/Cl)C(=O)O` was tested, and the outcome was “inactive; no positive results”. `c1ccc2sc(SN3CCOCC3)nc2c1` was tested, and the outcome was “inactive; no positive results”. For `CC1=CC(=O)CC(C)(C)C1`, the outcome was “inactive; no positive results”. For `CCCCCl`, the outcome was “inactive; no positive results”. For `NC(=S)NNC(N)=S`, the outcome was “inactive; no positive results”. For `CCOP(=O)(CC1CO1)OCC` (stereo not drawn), the outcome was “inactive”. With `O=S1(=O)CC=CC1` the outcome was “inactive; no positive results”. With `FC(F)OC(Cl)C(F)(F)F` (stereo not drawn) the outcome was “inactive; no positive results”. In the case of `Clc1nc(Cl)nc(Nc2ccccc2Cl)n1`, the outcome is reported as “inactive; no positive results”. For `CC(C)NCC(O)c1ccc2ccccc2c1` (stereo not drawn), the outcome was “inactive; no positive results”. For `Cc1cccc(C)c1`, the outcome was “inactive; no positive results”. `O=[N+]([O-])c1ccc(O)c([N+](=O)[O-])c1` was tested, and the outcome was “inactive”. With `Clc1ccc2c(c1)Oc1ccc(Cl)cc1O2` the outcome was “inactive; no positive results”. For `COc1ccc(C(=O)/C(Br)=C\C(=O)O)cc1`, the outcome was “inactive; no positive results”. In the case of `COC(=O)C1=C(C)NC(C)=C(C(=O)OCCN2CCN(C(c3ccccc3)c3ccccc3)CC2)C1c1cccc([N+](=O)[O-])c1` (stereo not drawn), the outcome is reported as “inactive; no positive results”. For `CN(C)c1ccccc1`, the outcome was “inactive; no positive results”. With `OCC(CO)N[C@H]1C[C@](O)(CO)[C@@H](O)[C@H](O)[C@H]1O` the outcome was “inactive; no positive results”. In the case of `NC(=O)c1cccnc1`, the outcome is reported as “inactive; no positive results”. `CN(C)[C@@H]1C(=O)C(C(N)=O)=C(O)[C@@]2(O)C(=O)C3=C(O)c4c(O)cccc4[C@@](C)(O)[C@H]3[C@H](O)[C@@H]12` was tested, and the outcome was “inactive; no positive results”. In the case of `COc1ccc(CN(CCN(C)C)c2ccccn2)cc1`, the outcome is reported as “inactive; no positive results”. `O=S(=O)(Oc1ccc(Cl)cc1Cl)c1ccccc1` was tested, and the outcome was “inactive; no positive results”. With `CNc1ncnc2nc[nH]c12` the outcome was “inactive; no positive results”. In the case of `CCCCN(CCCC)C(=S)[S-].CCCCN(CCCC)C(=S)[S-].[Ni+2]`, the outcome is reported as “inactive; no positive results”. `c1ccc2c(c1)Nc1ccccc1S2` was tested, and the outcome was “inactive; no positive results”. For `O.O.O.O.O=C([O-])CC(O)(CC(=O)[O-])C(=O)[O-].[Fe+3]`, the outcome was “inactive; no positive results”.

Same assay, conditions: TD50_Mouse_Note: positive test results only by intraperitoneal or intravenous injection; TD50 is harmonic mean of more than one positive; TargetSites_Mouse_Female: kidney; lung
`CN(N=O)C(=O)N[C@@H]1[C@@H](O)[C@H](O)[C@@H](CO)O[C@@H]1O` showed a Potency of 0.00103 mmol/kg/day.

Same assay, conditions: TargetSites_Mouse_BothSexes: no positive results
For `COc1cc(NC(=O)C(N=Nc2ccc(-c3ccc(N=NC(C(C)=O)C(=O)Nc4cc(OC)c(Cl)cc4OC)c(Cl)c3)cc2Cl)C(C)=O)c(OC)cc1Cl` (stereo not drawn), the outcome was “inactive”. With `O=[N+]([O-])c1ccc(O)c([N+](=O)[O-])c1` the outcome was “inactive”.

Same assay, conditions: TargetSites_Mouse_Female: harderian gland; pituitary gland
For `CC(I)C1OCC(CO)O1` (stereo not drawn), the Potency was 0.535 mmol/kg/day.

Same assay, conditions: TargetSites_Mouse_Female: liver
Compound `ClC(Br)Br` has a Potency of 0.667 mmol/kg/day. `c1ccc(NNc2ccccc2)cc1` was tested, and the Potency was 0.141 mmol/kg/day. Compound `Nc1ccc(Cl)c(N)c1` has a Potency of 8.63 mmol/kg/day.

Same assay, conditions: TargetSites_Mouse_Female: no positive results
For `CCNC(=O)Nc1ncc([N+](=O)[O-])s1`, the Potency was 3.51 mmol/kg/day. Work on `O=Nc1ccc(Nc2ccccc2)cc1` yielded a Potency of 1.72 mmol/kg/day. In the case of `COc1nn(CSP(=S)(OC)OC)c(=O)s1`, the Potency is reported as 0.02 mmol/kg/day. With `Cc1ccc(NC(N)=O)cc1` the Potency was 1.37 mmol/kg/day. Compound `O=[N+]([O-])c1c(Cl)c(Cl)c(Cl)c(Cl)c1Cl` has a Potency of 0.241 mmol/kg/day. Compound `CCOc1ccccc1C(N)=O` has a Potency of 3.11 mmol/kg/day.

Same assay, conditions: TargetSites_Mouse_Female: small intestine
For `OO`, the Potency was 222 mmol/kg/day.

Same assay, conditions: TargetSites_Mouse_Female: uterus
Work on `CCBr` yielded a Potency of 4.91 mmol/kg/day.
